Measured values: paper PMC5493921 (Royal Society Open Science, 2017)

What was measured:
ZfGBA1 = target: T1, ZfGBA1 (Zygaena filipendulae, UniProt A0A1W1EGM7); assay type: cell-based
T1 construct: expressed with and without (*) predicted native N-terminal signal peptide; retained in cells

ZfBGD2 = target: T2, ZfBGD2 (Zygaena filipendulae, UniProt A0A1W1EGN8); assay type: cell-based
T2 construct: expressed with and without (*) predicted native N-terminal signal peptide; retained in cells
T2 sequence (A0A1W1EGN8 19-524 limits assumed): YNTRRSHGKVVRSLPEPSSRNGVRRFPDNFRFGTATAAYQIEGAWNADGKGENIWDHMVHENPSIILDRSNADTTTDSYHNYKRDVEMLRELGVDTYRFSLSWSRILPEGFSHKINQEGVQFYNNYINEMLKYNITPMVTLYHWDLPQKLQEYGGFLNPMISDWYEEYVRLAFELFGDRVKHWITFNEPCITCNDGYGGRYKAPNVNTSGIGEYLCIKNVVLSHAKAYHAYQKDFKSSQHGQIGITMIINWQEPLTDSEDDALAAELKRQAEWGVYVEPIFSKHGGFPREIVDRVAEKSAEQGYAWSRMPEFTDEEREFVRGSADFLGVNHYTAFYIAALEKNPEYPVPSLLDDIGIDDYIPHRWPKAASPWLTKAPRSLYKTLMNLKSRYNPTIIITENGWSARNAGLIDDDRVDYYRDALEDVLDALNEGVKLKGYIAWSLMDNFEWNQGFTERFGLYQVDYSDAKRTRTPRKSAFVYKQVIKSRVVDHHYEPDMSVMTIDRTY

T1 sequence (A0A1W1EGM7 entry or part of it): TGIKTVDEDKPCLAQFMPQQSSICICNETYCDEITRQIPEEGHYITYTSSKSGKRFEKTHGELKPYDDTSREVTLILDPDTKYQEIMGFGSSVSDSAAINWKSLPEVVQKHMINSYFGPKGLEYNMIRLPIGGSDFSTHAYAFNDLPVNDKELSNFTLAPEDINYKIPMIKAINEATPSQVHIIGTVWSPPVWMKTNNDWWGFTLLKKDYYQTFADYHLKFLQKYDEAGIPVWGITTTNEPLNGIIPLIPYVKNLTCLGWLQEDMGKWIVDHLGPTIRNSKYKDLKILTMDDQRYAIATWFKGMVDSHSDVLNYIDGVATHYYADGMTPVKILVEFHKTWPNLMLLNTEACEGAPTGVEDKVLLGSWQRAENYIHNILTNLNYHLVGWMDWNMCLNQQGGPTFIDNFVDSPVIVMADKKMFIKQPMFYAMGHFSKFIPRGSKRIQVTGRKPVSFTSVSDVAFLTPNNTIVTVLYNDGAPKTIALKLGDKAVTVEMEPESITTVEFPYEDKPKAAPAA

SMILES	HCN release from re-suspended Sf9 cells, Feigl-Anger paper and colorimetric (ZfGBA1)	HCN release from re-suspended Sf9 cells, Feigl-Anger paper and colorimetric (ZfBGD2)
CC(C)(C#N)O[C@@H]1O[C@H](CO)[C@@H](O)[C@H](O)[C@H]1O [lin, linamarin]	ZfBGD2 and ZfGBA1 also hydrolysed linamarin and lotaustralin	ZfBGD2 and ZfGBA1 also hydrolysed linamarin and lotaustralin
CC[C@](C)(C#N)O[C@@H]1O[C@H](CO)[C@@H](O)[C@H](O)[C@H]1O [lot, lotaustralin]	ZfBGD2 and ZfGBA1 also hydrolysed linamarin and lotaustralin	ZfBGD2 and ZfGBA1 also hydrolysed linamarin and lotaustralin
